This note sets out measurements from ChEMBL document CHEMBL1255298, “Larger vancomycin doses (at least four grams per day) are associated with an increased incidence of nephrotoxicity” (Antimicrob Agents Chemother, 2008).

The species entered for data set [1] is Homo sapiens. The data set is described as follows: Nephrotoxicity in patient with gram-positive bacterial infection assessed as change in serum […] level at > 4 g/day measured within 72 hrs. It is filed as toxicity, organism-based. As to conditions: in vivo.
Data set [2] is filed under the species Homo sapiens. The data set is described as follows: Nephrotoxicity in patient with gram-positive bacterial infection assessed as serum […] level at > 4 g/day measured within 72 hrs. It is filed as toxicity, organism-based. As to conditions: in vivo.

Turning to `CN[C@H](CC(C)C)C(=O)N[C@H]1C(=O)N[C@@H](CC(N)=O)C(=O)N[C@H]2C(=O)N[C@H]3C(=O)N[C@H](C(=O)N[C@H](C(=O)O)c4cc(O)cc(O)c4-c4cc3ccc4O)[C@H](O)c3ccc(c(Cl)c3)Oc3cc2cc(c3O[C@@H]2O[C@H](CO)[C@@H](O)[C@H](O)[C@H]2O[C@H]2C[C@](C)(N)[C@H](O)[C@H](C)O2)Oc2ccc(cc2Cl)[C@H]1O` [VANCOMYCIN], the Activity in the data set listed under Homo sapiens [1] was 45.6%; in the data set listed under Homo sapiens [2], 2.1 mg/dL.
